Laboratory results: paper PMC9030254, “Target Hopping from Protein Kinases to PXR: Identification of Small-Molecule Protein Kinase Inhibitors as Selective Modulators of Pregnane X Receptor from TüKIC Library” (Cells, 2022)

Experiments:
Experiment in all cases: Kinase profiling
Type in all cases: biochemical
PRKG2 = target: T1, PRKG2 (Homo sapiens, UniProt Q13237)
T1 construct: purchased ProQinase (Freiburg, Germany)
T1 sequence (Q13237 1-762): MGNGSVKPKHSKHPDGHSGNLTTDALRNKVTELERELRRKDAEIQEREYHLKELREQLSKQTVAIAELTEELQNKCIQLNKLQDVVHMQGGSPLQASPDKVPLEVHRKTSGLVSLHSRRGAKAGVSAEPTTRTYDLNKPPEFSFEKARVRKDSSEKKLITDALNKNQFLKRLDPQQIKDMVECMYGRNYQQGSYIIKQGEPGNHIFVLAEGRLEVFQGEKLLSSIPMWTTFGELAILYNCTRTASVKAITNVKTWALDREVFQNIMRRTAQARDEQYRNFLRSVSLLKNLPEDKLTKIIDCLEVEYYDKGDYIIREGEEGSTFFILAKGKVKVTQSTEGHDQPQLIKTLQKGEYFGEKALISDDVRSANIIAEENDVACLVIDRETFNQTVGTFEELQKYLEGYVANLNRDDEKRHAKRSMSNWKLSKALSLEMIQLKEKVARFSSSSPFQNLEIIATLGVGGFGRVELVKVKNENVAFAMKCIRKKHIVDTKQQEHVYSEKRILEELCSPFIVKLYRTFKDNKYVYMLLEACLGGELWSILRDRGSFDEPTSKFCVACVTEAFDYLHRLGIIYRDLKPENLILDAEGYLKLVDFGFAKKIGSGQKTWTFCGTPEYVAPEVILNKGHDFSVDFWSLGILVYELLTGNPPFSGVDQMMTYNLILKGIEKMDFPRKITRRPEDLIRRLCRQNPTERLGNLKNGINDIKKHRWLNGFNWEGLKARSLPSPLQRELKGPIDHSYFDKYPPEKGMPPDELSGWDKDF
Experimental: (§1) The analysis was performed by ProQinase (Freiburg, Germany).

PIM2 = target: T2, PIM2 (Homo sapiens, UniProt Q9P1W9)
T2 construct: purchased ProQinase (Freiburg, Germany)
Experimental: as §1

TXK = target: T3, TXK (Homo sapiens, UniProt P42681)
T3 construct: purchased ProQinase (Freiburg, Germany)
T3 sequence (P42681 1-527): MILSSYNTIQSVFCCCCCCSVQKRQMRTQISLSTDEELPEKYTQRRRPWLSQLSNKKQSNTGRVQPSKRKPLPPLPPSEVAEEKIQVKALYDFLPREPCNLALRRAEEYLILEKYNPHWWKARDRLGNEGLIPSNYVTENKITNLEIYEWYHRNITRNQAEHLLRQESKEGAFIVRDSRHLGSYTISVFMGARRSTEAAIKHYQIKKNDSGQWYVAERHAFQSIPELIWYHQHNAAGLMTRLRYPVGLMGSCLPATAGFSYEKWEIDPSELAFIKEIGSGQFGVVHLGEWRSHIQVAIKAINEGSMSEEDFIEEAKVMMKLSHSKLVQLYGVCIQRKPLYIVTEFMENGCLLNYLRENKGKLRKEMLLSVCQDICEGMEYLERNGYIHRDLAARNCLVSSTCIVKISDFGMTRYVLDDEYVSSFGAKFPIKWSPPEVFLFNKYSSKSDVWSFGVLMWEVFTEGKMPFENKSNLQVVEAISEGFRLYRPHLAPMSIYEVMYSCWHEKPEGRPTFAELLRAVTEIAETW
Experimental: as §1

PKCiota = target: T4, PKCiota (Homo sapiens, UniProt P41743)
T4 construct: purchased ProQinase (Freiburg, Germany)
T4 sequence (P41743 1-596): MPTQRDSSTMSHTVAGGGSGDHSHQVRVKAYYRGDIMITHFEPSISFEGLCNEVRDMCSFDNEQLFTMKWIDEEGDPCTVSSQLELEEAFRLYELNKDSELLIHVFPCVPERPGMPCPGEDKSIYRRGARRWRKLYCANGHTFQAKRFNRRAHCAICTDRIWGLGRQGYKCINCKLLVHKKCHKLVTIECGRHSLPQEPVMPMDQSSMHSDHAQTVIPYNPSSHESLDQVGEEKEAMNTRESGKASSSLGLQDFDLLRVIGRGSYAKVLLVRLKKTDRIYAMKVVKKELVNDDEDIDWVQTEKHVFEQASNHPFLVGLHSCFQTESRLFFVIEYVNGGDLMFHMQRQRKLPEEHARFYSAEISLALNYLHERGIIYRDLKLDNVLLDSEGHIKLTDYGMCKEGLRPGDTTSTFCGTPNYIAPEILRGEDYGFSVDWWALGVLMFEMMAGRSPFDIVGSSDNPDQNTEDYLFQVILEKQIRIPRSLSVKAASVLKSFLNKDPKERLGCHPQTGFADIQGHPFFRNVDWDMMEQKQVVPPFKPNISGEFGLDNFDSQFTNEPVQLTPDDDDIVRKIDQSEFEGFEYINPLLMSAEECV
Experimental: as §1

SNK = target: T5, SNK (Homo sapiens, UniProt Q9NYY3)
T5 construct: purchased ProQinase (Freiburg, Germany)
Experimental: as §1

SRPK2 = target: T6, SRPK2 (Homo sapiens, UniProt P78362)
T6 construct: purchased ProQinase (Freiburg, Germany)
Experimental: as §1

RON = target: T7, RON (Homo sapiens, UniProt Q04912)
T7 construct: purchased ProQinase (Freiburg, Germany)
Experimental: as §1

PKCgamma = target: T8, PKCgamma (Homo sapiens, UniProt P05129)
T8 construct: purchased ProQinase (Freiburg, Germany)
Experimental: as §1

T7 sequence (Q04912 25-1400): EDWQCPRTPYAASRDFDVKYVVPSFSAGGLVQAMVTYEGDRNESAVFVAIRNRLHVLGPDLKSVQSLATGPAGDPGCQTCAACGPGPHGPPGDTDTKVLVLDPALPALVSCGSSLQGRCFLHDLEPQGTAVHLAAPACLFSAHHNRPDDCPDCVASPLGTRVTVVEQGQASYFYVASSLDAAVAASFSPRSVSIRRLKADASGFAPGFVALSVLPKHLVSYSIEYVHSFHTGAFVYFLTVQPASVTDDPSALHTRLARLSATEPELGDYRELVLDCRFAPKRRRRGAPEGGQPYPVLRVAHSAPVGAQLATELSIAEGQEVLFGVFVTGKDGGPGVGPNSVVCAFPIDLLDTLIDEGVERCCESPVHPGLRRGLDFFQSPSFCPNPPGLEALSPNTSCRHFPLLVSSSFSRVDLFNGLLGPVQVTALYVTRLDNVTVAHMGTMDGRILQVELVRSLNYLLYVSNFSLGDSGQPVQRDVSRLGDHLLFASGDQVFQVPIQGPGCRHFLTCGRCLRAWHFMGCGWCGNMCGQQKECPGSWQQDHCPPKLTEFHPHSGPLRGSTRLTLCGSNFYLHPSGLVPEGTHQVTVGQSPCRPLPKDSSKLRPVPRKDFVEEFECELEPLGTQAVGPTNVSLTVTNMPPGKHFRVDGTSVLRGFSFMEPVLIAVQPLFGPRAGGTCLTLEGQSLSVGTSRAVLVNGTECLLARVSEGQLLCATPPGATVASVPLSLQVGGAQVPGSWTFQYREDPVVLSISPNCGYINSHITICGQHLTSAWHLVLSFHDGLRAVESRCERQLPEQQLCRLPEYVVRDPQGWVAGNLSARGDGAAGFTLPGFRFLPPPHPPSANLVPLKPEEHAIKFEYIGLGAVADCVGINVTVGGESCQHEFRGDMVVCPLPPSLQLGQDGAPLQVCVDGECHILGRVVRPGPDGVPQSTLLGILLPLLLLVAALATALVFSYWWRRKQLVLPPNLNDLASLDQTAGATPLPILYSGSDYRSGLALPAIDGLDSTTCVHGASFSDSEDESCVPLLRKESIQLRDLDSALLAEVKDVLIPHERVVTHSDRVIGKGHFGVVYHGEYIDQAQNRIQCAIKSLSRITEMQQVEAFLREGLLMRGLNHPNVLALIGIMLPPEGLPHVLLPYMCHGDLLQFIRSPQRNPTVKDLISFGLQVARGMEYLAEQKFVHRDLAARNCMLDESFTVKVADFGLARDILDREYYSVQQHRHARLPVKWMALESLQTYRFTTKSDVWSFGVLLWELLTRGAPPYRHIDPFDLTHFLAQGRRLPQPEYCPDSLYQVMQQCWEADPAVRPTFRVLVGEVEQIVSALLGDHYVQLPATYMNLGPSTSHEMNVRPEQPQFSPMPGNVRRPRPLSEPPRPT
T5 sequence (Q9NYY3 whole entry): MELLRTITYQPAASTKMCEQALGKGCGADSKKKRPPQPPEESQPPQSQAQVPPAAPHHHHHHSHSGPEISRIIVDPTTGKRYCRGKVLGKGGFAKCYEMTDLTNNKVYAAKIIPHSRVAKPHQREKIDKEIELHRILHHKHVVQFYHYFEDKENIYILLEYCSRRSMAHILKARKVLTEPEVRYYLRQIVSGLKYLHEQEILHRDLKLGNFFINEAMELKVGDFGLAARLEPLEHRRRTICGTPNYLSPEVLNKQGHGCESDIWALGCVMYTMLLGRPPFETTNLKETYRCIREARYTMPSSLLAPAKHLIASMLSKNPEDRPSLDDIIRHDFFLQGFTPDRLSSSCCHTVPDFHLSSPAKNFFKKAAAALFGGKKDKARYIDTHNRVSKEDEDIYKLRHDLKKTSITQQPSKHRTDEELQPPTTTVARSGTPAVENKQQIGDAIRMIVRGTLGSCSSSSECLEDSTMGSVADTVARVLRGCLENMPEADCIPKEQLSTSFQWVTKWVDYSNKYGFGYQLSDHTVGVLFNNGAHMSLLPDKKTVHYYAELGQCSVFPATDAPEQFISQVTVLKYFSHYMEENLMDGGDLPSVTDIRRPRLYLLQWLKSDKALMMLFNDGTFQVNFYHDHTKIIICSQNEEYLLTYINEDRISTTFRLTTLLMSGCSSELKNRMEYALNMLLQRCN
T6 sequence (P78362 whole entry): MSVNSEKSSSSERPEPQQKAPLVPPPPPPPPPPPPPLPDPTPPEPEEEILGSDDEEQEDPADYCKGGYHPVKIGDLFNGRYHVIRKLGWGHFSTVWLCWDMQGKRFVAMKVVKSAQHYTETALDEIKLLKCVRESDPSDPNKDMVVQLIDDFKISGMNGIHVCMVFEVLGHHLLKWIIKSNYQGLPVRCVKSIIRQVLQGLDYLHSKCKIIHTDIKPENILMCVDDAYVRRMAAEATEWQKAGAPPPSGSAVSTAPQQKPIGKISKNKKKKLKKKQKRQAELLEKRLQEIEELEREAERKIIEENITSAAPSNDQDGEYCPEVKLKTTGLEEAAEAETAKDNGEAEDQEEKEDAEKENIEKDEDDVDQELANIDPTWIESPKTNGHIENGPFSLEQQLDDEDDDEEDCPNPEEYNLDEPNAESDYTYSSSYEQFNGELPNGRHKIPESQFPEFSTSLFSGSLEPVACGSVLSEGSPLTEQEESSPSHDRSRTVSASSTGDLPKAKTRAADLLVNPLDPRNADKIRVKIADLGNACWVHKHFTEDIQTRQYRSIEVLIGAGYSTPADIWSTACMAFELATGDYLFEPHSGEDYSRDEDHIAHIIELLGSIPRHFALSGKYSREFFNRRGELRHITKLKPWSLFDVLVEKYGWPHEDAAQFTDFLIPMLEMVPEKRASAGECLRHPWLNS
T2 sequence (Q9P1W9 whole entry): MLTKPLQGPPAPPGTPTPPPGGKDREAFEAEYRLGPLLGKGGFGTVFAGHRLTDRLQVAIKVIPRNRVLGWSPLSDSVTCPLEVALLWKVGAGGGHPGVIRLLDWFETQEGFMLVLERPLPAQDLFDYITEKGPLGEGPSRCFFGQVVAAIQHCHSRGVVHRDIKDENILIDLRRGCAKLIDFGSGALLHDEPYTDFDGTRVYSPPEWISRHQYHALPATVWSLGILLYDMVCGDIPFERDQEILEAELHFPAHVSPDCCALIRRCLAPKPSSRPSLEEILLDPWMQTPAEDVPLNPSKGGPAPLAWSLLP

| SMILES | Residual activity (PRKG2; 1.0E-05 M) | Residual activity (PRKG2; 1.0E-06 M) | Residual activity (PIM2; 1.0E-05 M) | Residual activity (PIM2; 1.0E-06 M) | Residual activity (TXK; 1.0E-05 M) | Residual activity (TXK; 1.0E-06 M) | Residual activity (PKCiota; 1.0E-05 M) | Residual activity (PKCiota; 1.0E-06 M) | Residual activity (SNK; 1.0E-05 M) | Residual activity (SNK; 1.0E-06 M) | Residual activity (SRPK2; 1.0E-05 M) | Residual activity (SRPK2; 1.0E-06 M) | Residual activity (RON; 1.0E-05 M) | Residual activity (RON; 1.0E-06 M) | Residual activity (PKCgamma; 1.0E-05 M) | Residual activity (PKCgamma; 1.0E-06 M) |
| --- | --- | --- | --- | --- | --- | --- | --- | --- | --- | --- | --- | --- | --- | --- | --- | --- |
| O=C(Cc1ccccc1)Nc1ccc(F)c(Nc2ccc3c(c2)CCCCC3=O)c1 [Compound 100] | 83 % of control | 94 % of control | 92 % of control | 109 % of control | 90 % of control | 100 % of control | 71 % of control | 94 % of control | 90 % of control | 102 % of control | 94 % of control | 100 % of control | 77 % of control | 104 % of control | 78 % of control | 77 % of control |
| O=C(Nc1ccc(F)c(Nc2ccc3c(c2)CCCCC3=O)c1)c1cccc(F)c1 [Compound 109] | 84 % of control | 88 % of control | 86 % of control | 100 % of control | 97 % of control | 97 % of control | 77 % of control | 82 % of control | 92 % of control | 94 % of control | 102 % of control | 111 % of control | 83 % of control | 89 % of control | 63 % of control | 81 % of control |
